Reference: patent EP2340832A1, “Morphinan-6-one compounds for the treatment or prevention of neurodegenerative diseases” (Universität Innsbruck, priority 2009, dated 2011)
Like-named read-outs stand apart in the source and are kept apart here.

Tests used:
[1] = test system: C57BL/6N female mice; test: Object recognition task; details: for object recognition (memory): normal mice; for effect on scopolamine-induced impairment of object recognition: scopolamine-pretreated mice, dose not given
[2] = molecular target: T1, σ receptors labelled by [^3H](+)-pentazocine (σ1) (Cavia porcellus, UniProt Q60492); test: Sigma receptor binding assay, [3H](+)-pentazocine; parameters: species or system guinea pig
T1 construct: from tissue; host or cells: guinea pig brain membranes
Description: (§1) Filters were washed three times with 5 ml of ice-cold 10 mM Tris-HCI buffer (pH 8). The bound radioactivity was measured by liquid scintillation counting (Beckman Coulter™ LS6500). […] The values are expressed as the mean ± S.E.M of 2 - 4 independent experiments, each performed in duplicate.

[3] = molecular target: σ receptors labelled by [^3H]DTG (σ1 + σ2); test: Sigma receptor binding assay, [3H]DTG; details: read-out: IC50 ± SEM [^3H]DTG (σ1 + σ2); guinea pig brain membranes; compounds 1-5 tested up to 10 µM
Description: as §1

[4] = test system: frontal cortex synaptosomes; test: ACh release from synaptosomes (15 mM K+-evoked [3H]-ACh release, superfusion); type: cell-based, male Sprague Dawley rats; details: 0.1 to 100 µM
Description: Preparation of synaptosomes: synaptosomes were prepared from brain frontal cortex of male Sprague Dawley rats (4 months old). The frontal cortex was rapidly dissected on ice and homogenized in 40 volumes of 0.32 M sucrose buffered at pH 7.4 with 0.01 M sodium phosphate. The homogenate was centrifuged at 1,000 g for 5 min. The crude synaptosomal pellet was obtained by centrifugation of the supernatant at 15,000 g for 20 min and was resuspended in 5 ml basal medium (125 mM Nacl, 3 mM KCI, 1.2 mM MgS04, 1.2 mM CaCl2, 1.0 mM NaH2PO4, 22 mM NaHCO3 and 10 mM glucose) which had been gassed with 95% O2 - 5% CO2 at 37 °C, pH 7.2 - 7.4.
Superfusion protocol: The synaptosomal suspension was incubated with [^3H]-choline (0.03 µM, 17.5x10^6 Bq/g) for 15 min at 37 °C. Then, the suspension was diluted (1:8) and aliquots were applied on filters in a continuous superfusion system with parallel chambers maintained at 37 °C. The media used for superfusion were basal medium and 15 mM K^+-containing stimulation medium. Both media were supplemented with ACh (1 µM) to facilitate the effectiveness of an allosteric potentiating ligand at the nicotine receptor and with atropine (0.1 µM) to block M2 presynaptic receptors. Synaptosomes were superfused with basal medium for 30 min to reach a constant outflow of [^3H]-ACh. Under these experimental conditions, the radioactivity released consisted largely of newly synthesized [^3H]-ACh. The K^+-stimulated release of [^3H]-ACh was determined in 2 subsequently collected fractions: 6 min basal release (superfusion with basal medium) and 6 min K^+-evoked release (superfusion for 1.5 min with 15 mM K^+-containing medium followed by […] basal medium). The test compounds galantamine, 4 and 2 were present in the superfusion medium concomitantly with 15 mM K^+ (for 1.5 min). Basal release of [^3H]-ACh (continuous superfusion with basal medium) was determined by collection of a 6 min sample followed by four subsequent 2 min samples. Aliquots of samples were mixed with scintillation liquid and the radioactivity quantified with a scintillation counter. The radioactivity bound to the filters was also measured.
Statistical analysis: The amount of [^3H]-ACh released in each sample was calculated as fraction of total synaptosomal tritium at the start of the respective collection period (tritium in the sample / sum of tritium in the respective fractions and in the synaptosomes on the filter). K^+-evoked release was expressed as percentage of basal release rate. Each n=1 represents the mean of an experiment with one synaptosomal preparation in at least 3 superfusion chambers. Statistical significance of group variances was calculated by one way ANOVA followed by Bonferroni's test.

[5] = molecular target: T2, k opioid receptors (Cavia porcellus, UniProt P41144); test: Opioid receptor binding assay, [3H]U69,593, guinea pig brain membranes
T2 construct: Membrane fractions were prepared from Sprague-Dawley rat or guinea pig brains; from tissue; host or cells: guinea pig brain (without cerebella) membranes
Description: (§2) Briefly, brains without cerebella were homogenised on ice in 5 volumes of ice-cold 50 mM Tris-HCI buffer (pH 7.4) and diluted in 30 volumes of the same buffer. After centrifugation at 40,000 x g for 20 min at 4°C, the pellets were resuspended in 30 volumes of Tris-HCI buffer and incubated at 37 °C for 30 min (rat brain) or for 10 min (guinea pig brain). The centrifugation step was repeated and the final pellets were resuspended in 5 volumes of 50 mM Tris-HCI buffer (pH 7.4) containing 0.32 M sucrose to give a protein concentration of 4 - 6 mg/ml. Protein concentration was determined by the method of Bradford using bovine serum albumin as standard.
(§3) Binding experiments were performed in 50 mM Tris-HCI buffer (pH 7.4) in a final volume of 1 ml containing 0.3 - 0.5 mg protein and different concentrations of the compounds. […] Guinea pig brain membranes were incubated with [^3H]U69,593 (30 min, 30 °C). Non-specific binding was determined in the presence of 10 µM unlabeled naloxone. […] Inhibition constant (Ki) values were calculated from competition binding curves using GraphPad Prism (San Diego, CA, USA) program. The values are expressed as the mean ± S.E.M of 2-4 independent experiments, each performed in duplicate.
(§4) The morphinan-6-one compounds of the present invention were evaluated in in vitro receptor binding assays for their interaction abilities with µ, δ and k opioid receptors. […] The affinities of the compounds at k opioid receptors were determined by displacement of [^3H]U69,593 using guinea pig brain membranes.

[6] = test system: extracellular ACh concentration in the nucleus accumbens; details: for 0AUC120 min (% increase x min) Mean ± SEM: 0 to 120 min; for Increase in ACh release (Peak increase as % of basal output): nucleus accumbens
[7] = molecular target: T3, δ opioid receptors (Rattus norvegicus, UniProt P33533); test: Opioid receptor binding assay, [3H][Ile5,6]deltorphin II, rat brain membranes; parameters: species or system Sprague-Dawley rat
T3 construct: Membrane fractions were prepared from Sprague-Dawley rat or guinea pig brains; from tissue; host or cells: Sprague-Dawley rat brain (without cerebella) membranes
Description: as §2, §3, §4

[8] = molecular target: T4, electric eel AChE (EC 3.1.1.7) (Electrophorus electricus, UniProt O42275); test: Spectrophotometric assay for AChE inhibitory activity (modified Ellman's method); type: biochemical
T4 construct: purchased Sigma-Aldrich, Germany

[9] = molecular target: T5, µ opioid receptor (Rattus norvegicus, UniProt P33535); test: Opioid receptor binding assay, [3H]DAMGO, rat brain membranes; parameters: Membrane fractions were prepared from Sprague-Dawley rat or guinea pig brains; from tissue; host or cells: Sprague-Dawley rat brain (without cerebella) membranes; species or system Sprague-Dawley rat
Description: as §2, §3, §4

[10] = test system: C57BL/6N female mice; test: Open field (locomotor activity); type: in vivo
Description: Each mouse was used only once. […] . […] Thereafter it was replaced by the obturator.
The open field consisted of a transparent plastic box with white floor (41 x 41 x 41 cm) equipped with an automated activity monitoring system (True Scan, Coulbourn Instruments, Allentown, Pennsylvania, USA). The illumination at floor level was 150 lux. Mice were individually placed into the centre of the open field and their behaviours were tracked with the activity monitoring system. The time of locomotor activity, the overall distance travelled by the mice and the fraction of locomotor activity in the center area (center distance and center time) were monitored for 10 min. The arena was thoroughly cleaned with wet paper towels and dried at the end of each test.
Statistical analysis: All data from behavioural studies are shown as mean ± SEM. Statistical analysis was performed using the analysis of variance (ANOVA), followed by post hoc multiple comparisons Tukey-Kramer test, except comparison of alternation rates with the theoretical value of chance (defined as 50%) which was evaluated by Wilcoxon signed rank test. All statistical analyses were carried out by using the Graphpad Prism Program, version 4.0, Graphpad software, Inc.

[11] = molecular target: T6, δ receptor (Rattus norvegicus, UniProt P33533); test: [35S]GTPγS functional assay, rat brain membranes, δ receptor; type: biochemical, Sprague-Dawley rat
T6 construct: Membrane fractions were prepared from Sprague-Dawley rat or guinea pig brains; from tissue; host or cells: Sprague-Dawley rat brain (without cerebella) membranes
Description: (§5) Membrane fractions were prepared from Sprague-Dawley rat or guinea pig brains as described above. To determine binding of [^35S]GTPyS, rat or guinea pig brain membranes (10 µg of protein) were incubated for 60 min at 30 °C in Tris-EGTA buffer (50 mM Tris-HCl buffer, 3 mM MgCl2, 1 mM EGTA, […], pH 7.4) containing 30 µM GDP, 0.05 nM [^35S]GTPyS and appropriate concentrations of the respective compounds according to the present invention in a final volume of 1 ml. The reaction was terminated by vacuum filtration through Whatman GF/B glass fibre filters. Filters were washed three times with ice-cold 50 mM Tris-HCI buffer (pH 7.4) and the bound radioactivity was measured by liquid scintillation counting (Beckman Coulter™ LS6500). Basal activity was determined by subtracting the non-specific binding (measured in the presence of 100 µM unlabelled GTPyS) from the total binding (measured in the absence of the compound).
(§6) Stimulation produced by the compound is given as percentage of the basal activity (given as 100%). Functional data, EC50 (nM; half maximal effective concentration) and maximal stimulation Emax (% stimulation over basal level; maximal effective concentration), were calculated by using nonlinear regression analysis and sigmoidal curve fitting GraphPad Prism (San Diego, CA, USA) program. The values are expressed as the mean ± S.E.M of at least 3 independent experiments, each performed in triplicate. Statistical analysis was carried out using SPSS software (SPSS Inc., Chicago, lL, USA) and the Student T-test was used to compare different assay conditions. A ρ value < 0.05 was considered statistically significant.

[12] = molecular target: T7, K receptor (Cavia porcellus, UniProt P41144); type: biochemical, guinea pig
T7 construct: Membrane fractions were prepared from Sprague-Dawley rat or guinea pig brains; from tissue; host or cells: guinea pig brain (without cerebella) membranes

[13] = molecular target: T5, µ opioid receptor; test: [35S]GTPγS functional assay, rat brain membranes, µ receptor; type: biochemical, Sprague-Dawley rat; parameters: Membrane fractions were prepared from Sprague-Dawley rat or guinea pig brains; from tissue; host or cells: Sprague-Dawley rat brain (without cerebella) membranes; details: rat brain membranes
Description: as §5, §6

[14] = test system: C57BL/6N female mice; test: T-maze continuous alternation
[15] = scopolamine 0.033 µmol, compound 0.1 µmol i.c.v.

T3 sequence (P33533 whole entry): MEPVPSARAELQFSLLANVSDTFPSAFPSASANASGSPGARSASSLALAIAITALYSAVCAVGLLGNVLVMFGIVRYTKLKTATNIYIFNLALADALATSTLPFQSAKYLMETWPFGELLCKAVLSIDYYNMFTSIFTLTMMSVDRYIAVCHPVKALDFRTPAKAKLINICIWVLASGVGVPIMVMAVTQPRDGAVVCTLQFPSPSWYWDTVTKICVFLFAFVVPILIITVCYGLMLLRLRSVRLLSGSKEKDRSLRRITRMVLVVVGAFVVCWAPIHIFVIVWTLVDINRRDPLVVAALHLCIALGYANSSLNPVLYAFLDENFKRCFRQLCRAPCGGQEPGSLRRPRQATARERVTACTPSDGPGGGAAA
T7 sequence (P41144 whole entry): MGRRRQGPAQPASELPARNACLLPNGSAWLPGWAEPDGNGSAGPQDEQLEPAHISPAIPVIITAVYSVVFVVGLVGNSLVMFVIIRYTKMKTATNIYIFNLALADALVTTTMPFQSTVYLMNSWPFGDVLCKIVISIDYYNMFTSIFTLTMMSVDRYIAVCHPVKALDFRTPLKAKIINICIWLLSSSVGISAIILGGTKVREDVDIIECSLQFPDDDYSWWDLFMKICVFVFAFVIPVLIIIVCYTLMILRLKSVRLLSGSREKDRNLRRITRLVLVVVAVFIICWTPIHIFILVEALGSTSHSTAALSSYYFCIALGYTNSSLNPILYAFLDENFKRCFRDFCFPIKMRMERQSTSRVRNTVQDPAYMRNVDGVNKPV
T2 sequence (P41144 whole entry): as above
T5 sequence (P33535 whole entry): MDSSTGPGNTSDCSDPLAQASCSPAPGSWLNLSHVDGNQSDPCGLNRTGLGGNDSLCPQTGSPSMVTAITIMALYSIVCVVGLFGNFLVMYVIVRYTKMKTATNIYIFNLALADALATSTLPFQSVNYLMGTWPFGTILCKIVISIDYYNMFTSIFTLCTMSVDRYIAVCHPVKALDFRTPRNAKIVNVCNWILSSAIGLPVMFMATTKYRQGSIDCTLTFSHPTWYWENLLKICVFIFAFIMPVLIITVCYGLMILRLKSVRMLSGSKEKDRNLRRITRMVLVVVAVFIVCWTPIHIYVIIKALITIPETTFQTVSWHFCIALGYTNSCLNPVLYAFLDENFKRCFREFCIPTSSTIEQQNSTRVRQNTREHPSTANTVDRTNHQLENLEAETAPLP
T6 sequence (P33533 whole entry): as the sequence (P33533 whole entry) above
T4 sequence (O42275 24-633): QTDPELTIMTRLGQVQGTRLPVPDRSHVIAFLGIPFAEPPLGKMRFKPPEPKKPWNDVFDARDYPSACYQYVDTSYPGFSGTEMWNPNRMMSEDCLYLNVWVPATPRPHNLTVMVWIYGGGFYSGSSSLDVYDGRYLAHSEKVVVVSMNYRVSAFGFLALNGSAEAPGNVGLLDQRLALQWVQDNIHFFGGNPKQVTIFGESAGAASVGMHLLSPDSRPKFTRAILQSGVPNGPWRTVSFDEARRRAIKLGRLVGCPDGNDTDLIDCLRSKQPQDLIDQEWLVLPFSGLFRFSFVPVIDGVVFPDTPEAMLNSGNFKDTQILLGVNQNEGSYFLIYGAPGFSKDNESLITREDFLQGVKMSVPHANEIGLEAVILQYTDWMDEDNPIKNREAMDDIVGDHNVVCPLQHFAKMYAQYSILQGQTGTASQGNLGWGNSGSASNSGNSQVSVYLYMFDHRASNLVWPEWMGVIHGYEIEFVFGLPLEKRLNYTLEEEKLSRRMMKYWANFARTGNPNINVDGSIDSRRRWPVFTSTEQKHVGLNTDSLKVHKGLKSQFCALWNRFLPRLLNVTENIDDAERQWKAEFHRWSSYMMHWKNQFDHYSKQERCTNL
T1 sequence (Q60492 whole entry): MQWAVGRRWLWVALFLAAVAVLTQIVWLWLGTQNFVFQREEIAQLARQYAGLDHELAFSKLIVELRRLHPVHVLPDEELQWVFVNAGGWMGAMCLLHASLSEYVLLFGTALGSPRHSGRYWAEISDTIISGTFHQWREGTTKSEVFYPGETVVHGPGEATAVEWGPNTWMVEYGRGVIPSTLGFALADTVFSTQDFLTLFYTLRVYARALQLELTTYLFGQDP

O=CN1CC[C@]23c4c5cccc4OC2C(=O)CC[C@H]3[C@H]1C5 (stereo in doubt) [Compound 3, 4,5-epoxy-N-formylmorphinan-6-one]
object recognition (memory) ([1]; 0.02 µmol i.c.v.): did not influence the object recognition | effect on scopolamine-induced impairment of object recognition [1]: ineffective | IC50 [2]: > 10 µM | IC50 [3]: > 10 µM | effect on K+-evoked ACh release in frontal-cortex synaptosomes [4]: did not influence ACh release | Ki [5]: > 10 µM | Ki ([5]; read-out: Opioid binding affinities Ki κ receptor, [3H]U69,593, guinea pig brain membranes): > 10 µM | effect on ACh in the superfusate (in words) ([6]; 1 µmol i.c.v.): increased ACh release | effect on ACh in the superfusate (in words) ([6]; 2 µmol i.c.v.): did not influence ACh up to 160 min followed by a decline thereafter | 0AUC120 min (% increase x min) Mean ± SEM ([6]; Dose 1 µmol i.c.v.): 410 ± 227 % increase x min | Increase in ACh release (Peak increase as % of basal output) ([6]; Dose 1 µmol i.c.v.): 123 ± 91 % | 0AUC120 min (% increase x min) Mean ± SEM ([6]; Dose 2 µmol i.c.v.): 160 ± 140 % increase x min | Increase in ACh release (Peak increase as % of basal output) ([6]; Dose 2 µmol i.c.v.): 75 ± 73% | Ki [7]: > 10 µM | Ki ([7]; read-out: Opioid binding affinities Ki δ receptor, [3H][Ile5,6]deltorphin II, rat brain membranes): > 10 µM | IC50 [8]: 60.3 µM | Ki [9]: > 10 µM | Ki ([9]; read-out: Opioid binding affinities Ki µ receptor, [3H]DAMGO, rat brain membranes): > 10 µM

C=CCN1CC[C@]23CC(=O)CC[C@@]2(OC)[C@H]1Cc1cccc(OC)c13 [Compound 5, 4,14-dimethoxy-N-allyl-morphinan-6-one]
object recognition (memory) ([1]; 0.1 µmol i.c.v.): increased the exploration ratio | effect on scopolamine-induced impairment of object recognition [1]: ineffective | IC50 [2]: > 10 µM | IC50 [3]: > 10 µM | Ki [5]: 0.328 µM | general locomotion in the open field (move distance, move time) ([10]; 0.1 µmol i.c.v., 10 min): did not influence | fraction of locomotor activity in the central zone ([10]; dose not given): did not influence | [35S]GTPγS binding on co-incubation with naltrindole versus antagonist alone ([11]; 10 µM each): did not produce any significant increase | effect on [35S]GTPγS binding stimulated by SNC 80 ([11]; compound 10 µM, SNC 80 10 µM): did not cause any significant changes | effect on ACh in the superfusate (in words) ([6]; 0.5 µmol i.c.v.): did not increase brain ACh | effect on ACh in the superfusate (in words) ([6]; 1 µmol i.c.v.): short peak increase | 0AUC120 min (% increase x min) Mean ± SEM ([6]; Dose 1 µmol i.c.v.): 158 ± 111 % increase x min | Increase in ACh release (Peak increase as % of basal output) ([6]; Dose 1 µmol i.c.v.): 51 ± 43% | effect on [35S]GTPγS binding stimulated by U69,593 [12]: no significant effect | [35S]GTPγS binding on co-incubation with Nor-BNI versus antagonist alone ([12]; 10 µM each, guinea pig brain membranes): did not produce any significant increase | [35S]GTPγS binding in the presence of the compound alone ([12]; guinea pig brain membranes, compared with U69,593): no increase | [35S]GTPγS binding on co-incubation with cyprodime versus antagonist alone ([13]; 10 µM each): did not produce any significant increase | effect on [35S]GTPγS binding stimulated by DAMGO ([13]; compound 10 µM, DAMGO 10 µM): significantly decreased | [35S]GTPγS binding in the presence of the compound alone ([13]; compared with DAMGO): no increase | Ki [7]: 1.25 µM | IC50 ([8]; 96-well microplate, 1% DMSO, read-out: AChE inhibitory activity IC50): 81.9 µM | Ki [9]: 0.0672 µM | binding to opioid receptor µ (in words) [9]: some µ opioid receptor affinity | selectivity among opioid receptor types ([9]; from binding, Table 3): moderate selectivity for the µ type | spontaneous alternation rate ([14]; normal mice, 0.1 µmol i.c.v.): did not influence alternation | effect on scopolamine-enhanced running time [14, 15]: further increased | effect on scopolamine-impaired alternation [14, 15]: had no effect
